Data: patent US20180193361A1, “GUT ANTI-INFLAMMATORY AGENTS FOR REGULATION OF HIGH BLOOD GLUCOSE LEVELS” (UNIVERSITY HEALTH NETWORK, priority 2015, published 2018)

Test system: small bowel dendritic cells
Assay: DC-T cell co-culture, 5-ASA pre-treated small bowel dendritic cells with OT-II T cells
Format: cell-based, mice
Details: DCs pre-treated with 0.1 or 1.0 mM 5-ASA 24 hours, OVA323-339 peptide, 48 hours
Protocol: To measure the effect of IFNγ on tight-junction gene expression, we treated MODE-K cells with recombinant mouse IFNγ (Biolegend). We purified bulk dendritic cells and T cells from murine small bowels and spleens using a negative selection DC or T cell isolation kit (Stem Cell Technologies). We plated T cells at 5×10^5 cells/well with plate-bound anti-CD3/CD28 (1 μg/ml, Biolegend). […] We collected supernatants for cytokine measurements after 72 hour incubation. […] After 24 hours, we washed the cells with PBS and co-cultured them (1×10^4 cells/well) with OVA323-339 peptide and OT-II splenic or small bowel T cells (5×10^4 cells/well) for 48 hours. Supernatants were collected at 48 hours for cytokine measurement.

Nc1ccc(O)c(C(=O)O)c1 [5-ASA, 5-aminosalicylic acid]
IFNγ levels from OT-II CD4+ T cells: reduced
